According to ChEMBL document CHEMBL1125035, “Synthesis and biological activity of novel vitamin D analogues: 24,24-difluoro-25-hydroxy-26,27-dimethylvitamin D3 and 24,24-difluoro-1 alpha,25-dihydroxy-26,27-dimethylvitamin D3” (1990):

Legend:
[1] = tested on: Rattus norvegicus; experiment: Ability to stimulate intestinal-calcium transport by the administration of compound in rats at a concentration of 50 pmol at 69 hr.; format: functional, Intestine
[2] = tested on: Rattus norvegicus; experiment: Ability to mobilize Bone-Calcium transport, following the administration of compound in rats at a concentration of 50 pmol at 48 hr.; format: functional, organism-based
[3] = tested on: Rattus norvegicus; experiment: Ability to mobilize Bone-Calcium transport, following the administration of compound in rats at a concentration of 5 pmol at 69 hr.; format: functional, organism-based
[4] = tested on: Rattus norvegicus; experiment: Ability to mobilize Bone-Calcium transport, following the administration of compound in rats at a concentration of 5 pmol at 12 hr.; format: functional, organism-based
[5] = tested on: Rattus norvegicus; experiment: Ability to mobilize Bone-Calcium transport, following the administration of compound in rats at a concentration of 5000 pmol at 48 hr.; format: functional, organism-based
[6] = tested on: Rattus norvegicus; experiment: Ability to stimulate intestinal-calcium transport by the administration of compound in rats at a concentration of 500 pmol at 48 hr.; format: functional, Intestine
[7] = tested on: Rattus norvegicus; experiment: Ability to stimulate intestinal-calcium transport by the administration of compound in rats at a concentration of 5 pmol at 69 hr.; format: functional, Intestine
[8] = tested on: Rattus norvegicus; experiment: Ability to mobilize Bone-Calcium transport, following the administration of compound in rats at a concentration of 50 pmol at 12 hr.; format: functional, organism-based
[9] = tested on: Rattus norvegicus; experiment: Ability to stimulate intestinal-calcium transport by the administration of compound in rats at a concentration of 5 pmol at 48 hr.; format: functional, Intestine
[10] = tested on: Rattus norvegicus; experiment: Ability to stimulate intestinal-calcium transport by the administration of compound in rats at a concentration of 500 pmol at 12 hr.; format: functional, Intestine
[11] = tested on: Rattus norvegicus; experiment: Ability to stimulate intestinal-calcium transport by the administration of compound in rats at a concentration of 5 pmol at 12 hr.; format: functional, Intestine
[12] = tested on: Rattus norvegicus; experiment: Ability to mobilize Bone-Calcium transport, following the administration of compound in rats at a concentration of 5000 pmol at 69 hr.; format: functional, organism-based
[13] = tested on: Rattus norvegicus; experiment: Ability to mobilize Bone-Calcium transport, following the administration of compound in rats at a concentration of 5 pmol at 48 hr.; format: functional, organism-based
[14] = tested on: Rattus norvegicus; experiment: Ability to mobilize Bone-Calcium transport, following the administration of compound in rats at a concentration of 500 pmol at 12 hr.; format: functional, organism-based
[15] = tested on: Rattus norvegicus; experiment: Ability to stimulate intestinal-calcium transport by the administration of compound in rats at a concentration of 500 pmol at 69 hr.; format: functional, Intestine
[16] = tested on: Rattus norvegicus; experiment: Ability to stimulate intestinal-calcium transport by the administration of compound in rats at a concentration of 50 pmol at 48 hr.; format: functional, Intestine
[17] = tested on: Rattus norvegicus; experiment: Ability to mobilize Bone-Calcium transport, following the administration of compound in rats at a concentration of 500 pmol at 69 hr.; format: functional, organism-based
[18] = tested on: Rattus norvegicus; experiment: Ability to stimulate intestinal-calcium transport by the administration of compound in rats at a concentration of 50 pmol at 12 hr.; format: functional, Intestine
[19] = tested on: Rattus norvegicus; experiment: Ability to mobilize Bone-Calcium transport, following the administration of compound in rats at a concentration of 500 pmol at 48 hr.; format: functional, organism-based
[20] = tested on: Rattus norvegicus; experiment: Ability to mobilize Bone-Calcium transport, following the administration of compound in rats at a concentration of 5000 pmol at 13 hr.; format: functional, organism-based
[21] = tested on: Rattus norvegicus; experiment: Ability to stimulate intestinal-calcium transport by the administration of compound in rats at a concentration of 5000 pmol at 72 hr.; format: functional, Intestine
[22] = organism: Rattus norvegicus; experiment: Calcium binding protein induction in duodenal organ culture at a concentration of 1 nM in Male Albino rats; format: functional
[23] = tested on: Rattus norvegicus; experiment: Ability to mobilize Bone-Calcium transport, following the administration of compound in rats at a concentration of 5000 pmol at 47 hr.; format: functional, organism-based
[24] = organism: Rattus norvegicus; experiment: Calcium binding protein induction in duodenal organ culture at a concentration of 10 nM in Male Albino rats; format: functional
[25] = tested on: Rattus norvegicus; experiment: Ability to mobilize Bone-Calcium transport, following the administration of compound in rats at a concentration of 500 pmol at 72 hr.; format: functional, organism-based
[26] = tested on: Rattus norvegicus; experiment: Ability to stimulate intestinal-calcium transport by the administration of compound in rats at a concentration of 500 pmol at 13 hr.; format: functional, Intestine
[27] = tested on: Rattus norvegicus; experiment: Ability to stimulate intestinal-calcium transport by the administration of compound in rats at a concentration of 5000 pmol at 47 hr.; format: functional, Intestine
[28] = tested on: Rattus norvegicus; experiment: Ability to stimulate intestinal-calcium transport by the administration of compound in rats at a concentration of 50 pmol at 72 hr.; format: functional, Intestine
[29] = Relative potency against calcium binding protein induction in duodenal organ culture at a concentration of 10 nM compared to 1,25-(OH)2-D3 in Male Albino rats; format: functional
[30] = organism: Rattus norvegicus; experiment: Calcium binding protein induction in duodenal organ culture at a concentration of 100 nM in Male Albino rats; format: functional
[31] = tested on: Rattus norvegicus; experiment: Ability to mobilize Bone-Calcium transport, following the administration of compound in rats at a concentration of 5 pmol at 72 hr.; format: functional, organism-based
[32] = tested on: Rattus norvegicus; experiment: Ability to stimulate intestinal-calcium transport by the administration of compound in rats at a concentration of 50 pmol at 47 hr.; format: functional, Intestine
[33] = tested on: Rattus norvegicus; experiment: Ability to mobilize Bone-Calcium transport, following the administration of compound in rats at a concentration of 500 pmol at 13 hr.; format: functional, organism-based
[34] = tested on: Rattus norvegicus; experiment: Ability to stimulate intestinal-calcium transport by the administration of compound in rats at a concentration of 500 pmol at 72 hr.; format: functional, Intestine
[35] = tested on: Rattus norvegicus; experiment: Ability to mobilize Bone-Calcium transport, following the administration of compound in rats at a concentration of 5 pmol at 47 hr.; format: functional, organism-based
[36] = tested on: Rattus norvegicus; experiment: Ability to stimulate intestinal-calcium transport by the administration of compound in rats at a concentration of 5 pmol at 47 hr.; format: functional, Intestine
[37] = tested on: Rattus norvegicus; experiment: Ability to stimulate intestinal-calcium transport by the administration of compound in rats at a concentration of 50 pmol at 13 hr.; format: functional, Intestine
[38] = tested on: Rattus norvegicus; experiment: Ability to mobilize Bone-Calcium transport, following the administration of compound in rats at a concentration of 5000 pmol at 72 hr.; format: functional, organism-based
[39] = tested on: Rattus norvegicus; experiment: Ability to stimulate intestinal-calcium transport by the administration of compound in rats at a concentration of 5000 pmol at 13 hr.; format: functional, Intestine
[40] = tested on: Rattus norvegicus; experiment: Ability to mobilize Bone-Calcium transport, following the administration of compound in rats at a concentration of 50 pmol at 47 hr.; format: functional, organism-based

SMILES	Serosal/Mucosal Ca [1]	Serum Ca2+ [2] [mg/dL]	Serum Ca2+ [3] [mg/dL]	Serum Ca2+ [4] [mg/dL]	Serum Ca2+ [5] [mg/dL]	Serosal/Mucosal Ca [6]	Serosal/Mucosal Ca [7]	Serum Ca2+ [8] [mg/dL]	Serosal/Mucosal Ca [9]	Serosal/Mucosal Ca [10]	Serosal/Mucosal Ca [11]	Serum Ca2+ [12] [mg/dL]	Serum Ca2+ [13] [mg/dL]	Serum Ca2+ [14] [mg/dL]	Serosal/Mucosal Ca [15]	Serosal/Mucosal Ca [16]	Serum Ca2+ [17] [mg/dL]	Serosal/Mucosal Ca [18]	Serum Ca2+ [19] [mg/dL]	Serum Ca2+ [20] [mg/dL]	other results
C=C1/C(=C\C=C2/CCC[C@]3(C)[C@@H]([C@H](C)CCCC(C)(C)O)CC[C@@H]23)C[C@@H](O)C[C@@H]1O [CALCITRIOL]	5.69	4.54	4.12	4.38	4.78	5.98	2.75	5.58	3.19	4.06	2.62	4.78	4.08	6.1	5.67	4.71	4.48	3.23	4.35		
C=C1CC[C@H](O)C/C1=C/C=C1\CCC[C@]2(C)[C@@H]([C@H](C)CCC(F)(F)C(O)(CC)CC)CC[C@@H]12																				5.92	Serosal/Mucosal Ca [21]: 9.39; Ca2+ binding protein [22]: 10.1 ug (100mg of duodenum)-1; Serum Ca2+ [23]: 6.16 mg/dL; Ca2+ binding protein [24]: 22.4 ug (100mg of duodenum)-1; Serum Ca2+ [25]: 4.38 mg/dL; Serosal/Mucosal Ca [26]: 5.85; Serosal/Mucosal Ca [27]: 11.06; Serosal/Mucosal Ca [28]: 2.84; Relative potency [29]: 4.5; Ca2+ binding protein [30]: 66.7 ug (100mg of duodenum)-1; Serum Ca2+ [31]: 4.2 mg/dL; Serosal/Mucosal Ca [32]: 3.29; Serum Ca2+ [33]: 5.14 mg/dL; Serosal/Mucosal Ca [34]: 7.29; Serum Ca2+ [35]: 4.34 mg/dL; Serosal/Mucosal Ca [36]: 2.59; Serosal/Mucosal Ca [37]: 2.18; Serum Ca2+ [38]: 5.84 mg/dL; Serosal/Mucosal Ca [39]: 4.84; Serum Ca2+ [40]: 4.63 mg/dL
C=C1CC[C@H](O)C/C1=C/C=C1\CCC[C@]2(C)[C@@H]([C@H](C)CCCC(C)(C)O)CC[C@@H]12 [CALCIFEDIOL ANHYDROUS]																				6.82	Serosal/Mucosal Ca [21]: 11.48; Serum Ca2+ [23]: 6.24 mg/dL; Serum Ca2+ [25]: 5.04 mg/dL; Serosal/Mucosal Ca [26]: 3.6; Serosal/Mucosal Ca [27]: 11.01; Serosal/Mucosal Ca [28]: 8.87; Serum Ca2+ [31]: 4.32 mg/dL; Serosal/Mucosal Ca [32]: 11.54; Serum Ca2+ [33]: 6.22 mg/dL; Serosal/Mucosal Ca [34]: 9.89; Serum Ca2+ [35]: 4.66 mg/dL; Serosal/Mucosal Ca [36]: 3.41; Serosal/Mucosal Ca [37]: 3.75; Serum Ca2+ [38]: 6.5 mg/dL; Serosal/Mucosal Ca [39]: 5.43; Serum Ca2+ [40]: 4.68 mg/dL
C=C1/C(=C\C=C2/CCC[C@]3(C)[C@@H]([C@H](C)CCC(F)(F)C(O)(CC)CC)CC[C@@H]23)C[C@@H](O)C[C@@H]1O	3.04	4.08	4.13	4.34	5.86	5.39	2.34	5.5	2.09	8.92	2.85	4.82	3.98	6.12	5.46	4.25	4.87	4.41	4.94		
